In US20210147812A1, “Method of Preparing Cancer Spheroid and Method of Selecting Colorectal Cancer Patient” (Kyo Diagnostics K.K., priority 2017, published 2021):
Like-named read-outs stand apart in the source and are kept apart here. Values belong to the compound of their own block, whether it stands above or below them.

Tests used:
[1] = tested on: three luciferase-expressing CRC-TIC spheroid lines (HC21T, HC18T, HC25T); assay: Chemical library screening of 80 agonists or activators for growth-promoting effects; format: cell-based; conditions: Homo sapiens, read-out: stimulation of spheroid growth
Procedure: For growth monitoring assays, luciferase-expressing spheroids were cultured in 2-3 wells of a 12-well cell-culture plate. […] The spheroid cells were resuspended in Matrigel, distributed to the wells of 96-well “white” cell-culture plates (Corning; 3 μl per well) on a plate heater at 37° C., and cultured overnight in 100 μl/well of the medium. Spheroids were rinsed with 100 μl/well of PBS, and incubated with 50 μl of 150 μg/ml luciferin in phenol red-free DMEM/F12 medium (Nacalai) for 10 min at room temperature […]. Luminescence was scored using a conventional imaging device (Gel Doc XR+, BioRad). After this initial measurement, spheroids in each well were rinsed with 100 μl of PBS, and cultured in 100 μl of the medium. Luminescence was determined daily or 3 days later. The cell growth rate for each well was estimated as the proportion of photon counts to those on day 1.

[2] = tested on: eleven CRC-TIC spheroid lines and four normal spheroid lines; assay: Dose-dependent effects of SB431542 on the growth of spheroid lines (GEI); format: cell-based, human
Procedure: Luciferase-expressing cancer and normal spheroids were cultured in the cancer medium and the eL-WRN medium each containing EGF and bFGF, respectively, in the presence of SB431542 at the indicated concentrations. Tested were eleven CRC-TIC spheroid lines (circle) and four normal spheroid lines (square). Shown are the mean GEI of four replicates.
(§1) Luminescence was determined daily or 3 days later. The cell growth rate for each well was estimated as the proportion of photon counts to those on day 1. Four or six replicates (with similar statistical power) were analyzed for each data point in all experiments except for the chemical compound screening assays.

[3] = tested on: spheroid lines HC6T, HC9T, and HC20T; assay: Drug sensitivity tests in spheroids (GEI); format: cell-based, human; conditions: dose-dependent, FIGS. 16A-16C
Procedure: (§2) Luciferase-expressing spheroids were cultured in 2-3 wells of a 12-well cell-culture plate (in 60-90 μl Matrigel). […] From the spheroid solution thus obtained, 300 μl was taken and the cells were resuspended in an equal volume of Matrigel. The spheroid cells in Matrigel were distributed to the wells of 96-well “white” cell-culture plates (Corning; 3 μl per well) on a plate heater at 37° C., and cultured overnight in 100 μl/well of the medium. Spheroids were rinsed with 100 μl/well of PBS, and incubated with 50 μl of 150 μg/ml luciferin in phenol red-free DMEM/F12 medium (Nacalai) for 10 min at room temperature (20-28° C.). Luminescence was scored using a conventional imaging device (Gel Doc XR+, BioRad). After this initial measurement, spheroids in each well were rinsed with 100 μl of PBS, and cultured in 100 μl of the medium. Luminescence was determined on day 1 and day 3. Effects of a drug was determined by obtaining GEI (growth effect index), which is the growth rate of a group treated with the drug compared to a control group (a solvent-treated group). Results were shown using means in three independent experiments each conducted in triplicate.
The spheroid lines shown in Table 3 were used in this example.

[4] = tested on: two CRC-TIC spheroid lines (HC18T and HC21T); assay: Titration experiments, dose-dependent effects on growth (GEI); format: cell-based, human; conditions: for effect on spheroid growth in titration: at 10 μM
Procedure: Shown are the plots and means of GEI in three independent experiments. Asterisks indicate significant differences from the solvent-only group (P<0.05; analyzed using one-way ANOVA followed by Tukey's post-test).
Shown are the mean GEI±SEM (independent experiments, n=3). Asterisks indicate significant differences from the solvent-only (0 μM) group (P<0.05; analyzed using one-way ANOVA followed by Tukey's post-test).
as §1

[5] = tested on: CRC spheroids (HC18T, HC21T, and HC52T); assay: Morphology of spheroids after treatment with cAMP-signaling activators (phase-contrast micrographs); format: cell-based, human; conditions: 10 μM CV1808, 1 μM NECA, or 1 μM forskolin for five days
[6] = tested on: CRC-TIC spheroid lines that carried wild-type RAS/RAF genes (HC6T, HC9T, HC11T, HC21T); assay: Stimulation of spheroid growth with EGF and/or bFGF, luminescence-based growth monitoring (GEI); format: cell-based, human; conditions: HC6T, HC9T
Procedure: as §1
To investigate whether EGF and bFGF helped spheroid proliferation in the cancer medium as described above, we cultured with EGF and/or bFGF four slow-growing CRC-TIC spheroid lines that carried wild-type RAS/RAF genes (HC6T, HC9T, HC11T, HC21T). Because EGF/bFGF facilitated the growths of these spheroid lines substantially (FIG. 3A), we then quantified their effects by the luminescence-based growth monitoring. To calibrate the effects, we introduced the growth effect index (GEI) defined as the relative growth rate of a treated group to that of its solvent-only control in each paired assay. […] The extents of growth promotion by EGF and bFGF were different depending on the spheroid line. […] In another spheroid line (HC21T), the effects were similar between the two growth factors (FIG. 3B).

HC21T spheroid line = assay: Titration experiment, growth promotion (GEI); format: cell-based, human
Procedure: as §1

HC6T-PDSX mice = assay: Drug sensitivity tests in PDSX models (tumor volume); format: in vivo, nude mice (BALB/c-nu); conditions: 21 days; erdafitinib 10 mg/kg orally, cetuximab 250 μg i.p. twice a week
Procedure: Patient-derived spheroids were cultured in a 12-well culture plate to become confluent (4×10^5-4×10^6 cells/plate) and the spheroids were rinsed twice with PBS and placed in a 1.5 ml tube with Matrigel. The volume of the spheroid suspension was adjusted to 100 μl with PBS and the suspension thus obtained was subcutaneously injected into 4-6 week female nude mice (BALB/c-nu) at 1×10^5-9×10^5 cells/mouse.
PDSX mice were subjected to drug-dosing test when the mean estimated tumor volume reached 300 mm^3. Tumor volume (mm^3) was estimated by the following formula: length×width^2/2. We excluded the following kinds of tumors from the tests as outliers; too small (<100 mm^3), spontaneously shrinking, remaining unchanged in size, or deeply implanted and difficult to be measured.
The day of the dosing start was defined as day 0, with the tumor volume of each mouse measured twice a week for 3 weeks (days 0-21).
The relative tumor volume was estimated by calibration to the initial tumor volume on day 0. To evaluate the drug dosing effects, the ratio of tumor volume on day 21 to that on day 0 was compared among the four groups.

[7] = tested on: HC6T-PDSX and HC20T-PDSX tumors; assay: Histological examinations of PDSX tumors at day 21 (H&E, Ki67); format: in vivo, nude mice (BALB/c-nu); conditions: erdafitinib monotherapy group
Procedure: Paraffin-embedded tissues of PDSXs were prepared according to the standard procedures. Sections were stained with H&E or immunostained for Ki67.

[8] = tested on: normal colonic epithelial stem cell spheroids; assay: Drug sensitivity tests in spheroids (GEI); format: cell-based, human; conditions: concentrations below 1 μM
Procedure: as §2

Compound: CN[C@H](CC(=O)O)C(=O)O [NMDA, N-Methyl-D-aspartic acid]
activation at 10 µM [1]: > 25%

Compound: CCCc1c(OCCCOc2ccc(OCC(=O)O)cc2)ccc(C(C)=O)c1O [L-165,041, [4-[3-(4-Acetyl-3-hydroxy-2-propylphenoxy)propoxy]phenoxy]acetic acid]
activation at 10 µM ([1]; 10 μM each): > 25%

Compound: CC(C)(Sc1ccc(CCN(CCCCC2CCCCC2)C(=O)NC2CCCCC2)cc1)C(=O)O [GW7647, 2-methyl-2-[[4-[2-[[(cyclohexylamino)carbonyl](4-cyclohexylbutyl)amino]ethyl]phenyl]thio]-propanoic acid]
activation at 10 µM ([1]; 10 μM each): > 25%

Compound: NC(=O)c1ccc(-c2nc(-c3ccc4c(c3)OCO4)c(-c3ccccn3)[nH]2)cc1 [SB431542, 4-[4-(1,3-benzodioxol-5-yl)-5-(2-pyridinyl)-1H-imidazol-2-yl]benzamide]
effect on spheroid growth ([2]; at 10 μM): growth inhibition
effect on cancer versus normal spheroids ([2]; indicated concentrations, FIG. 7A): effects on cancer spheroids were less than those on normal spheroids

Compound: CCn1c(=O)[nH]c2cc(Cl)c(Cl)cc21 [DCEBIO, 5,6-Dichloro-1-ethyl-1,3-dihydro-2H-benzimidazol-2-one]
activation at 10 µM ([1]; 10 μM each): > 25%

Compound: CCN1CCN(c2ccc(Nc3cc(N(C)C(=O)Nc4c(Cl)c(OC)cc(OC)c4Cl)ncn3)cc2)CC1 [BGJ398]
growth of spheroid lines (GEI) [3]: suppressed the growth

Compound: Nc1nc(Nc2ccccc2)nc2c1ncn2[C@@H]1O[C@H](CO)[C@@H](O)[C@H]1O [CV1808, 2-phenylaminoadenosine]
activation at 10 µM ([1]; 10 μM each): > 25%
growth-promoting effect compared with NECA ([4]; dose-dependent, FIG. 9A): growth-promoting effect though weaker than that of NECA
morphological changes in spheroids [5]: cell flattening and increased sphere size

Compound: Cc1cc(SCc2sc(-c3ccc(C(F)(F)F)c(F)c3)nc2C)ccc1OCC(=O)O [GW0742, [4-[[[2-[3-fluoro-4-(trifluoromethyl)phenyl]-4-methyl-5-thiazolyl]methyl]thio]-2-methylphenoxy]-acetic acid]
activation at 10 µM [1]: > 25%
effect on spheroid growth in titration [4]: significant effects

Compound: AZD4547
growth of spheroid lines (GEI) [3]: suppressed the growth

Compound: CCCCCCCCc1ccc(-c2ccc(C(=O)O)cc2)cc1 [AC55649, 4′-Octyl-[1,1′-biphenyl]-4-carboxylic acid]
activation at 10 µM ([1]; 10 μM each): > 25%

Compound: C=CC(=O)N[C@H]1CCOC[C@H]1Nc1ncc2cc(-c3c(Cl)c(OC)cc(OC)c3Cl)ccc2n1 [BLU554]
growth of spheroid lines (GEI) [3]: suppressed the growth

Compound: Nc1nc2c(ccc3ccccc32)s1 [SKA-31, Naphtho[1,2-d]thiazol-2-ylamine]
activation at 10 µM ([1]; 10 μM each): > 25%
effect on spheroid growth in titration [4]: significant effects

Compound: COC(=O)C(Cc1ccc(OCCn2c(=O)sc3cc(C(=O)c4ccccc4)ccc32)cc1)C(=O)OC [compound 526948, [[4-[2-(6-Benzoyl-2-oxo-3(2H)-benzothiazolyl)ethoxy]phenyl]methyl]-1,3-propanedioic acid dimethyl ester]
activation at 10 µM ([1]; 10 μM each): > 25%

Compound: COCc1c(-c2cc3cc(C)cc(OC)c3s2)c2c(N)ncnn2c1CN1CCNC(=O)C1 [rogoratinib]
growth of spheroid lines (GEI) [3]: suppressed the growth

Compound: bFGF: basic fibroblast growth factor, recombinant human protein
extent of growth promotion, bFGF versus EGF [6]: more effective than EGF

Compound: CCNC(=O)[C@H]1O[C@@H](n2cnc3c(N)ncnc32)[C@H](O)[C@@H]1O [NECA, 5′-(N-ethyl-carboxamido)-adenosine]
EC50 (HC21T spheroid line): 195 nM
morphological changes in spheroids [5]: cell flattening and increased sphere size

growth of normal spheroids [8]: hardly suppressed the growth
Compound: COc1cc(OC)cc(N(CCNC(C)C)c2ccc3ncc(-c4cnn(C)c4)nc3c2)c1 [erdafitinib]
tumor volume versus control (HC6T-PDSX mice): reduced the tumor volume
tumors that disappeared (complete response) [7]: One of three
growth of spheroid lines (GEI) [3]: suppressed the growth
